Results taken from EP0712936B1, “LOW-MOLECULAR DNA FROM STURGEON MILT, A METHOD OF OBTAINING THE DNA AND A PHARMACEUTICAL PREPARATION BASED ON IT” (NAUCHNO-PROIZVODSTVENNOE PREDPRIYATIE "FARMEK", priority 1993, dated 1994).
Like-named read-outs stand apart in the source and are kept apart here.

Columns and labels:
HIV [1] = assay type: cell-based; settings: comparison preparation, no ratio
Method: (§1) The antiviral activity of preparations was assessed by the methods recommended for this purpose by the World Health Organization (20, 21). For this purpose we used the cultures of inoculated cell lines SEM and MT-4. The cells were cultured at a concentration of (0.03-0.05)x10^6 cells per 1 ml of PPM1 1640 with 10-% fetal serum of calves, 300 mg/ml of glutamine, 100 mkg/ml of heptamicine and grown in the form of a suspension. The vital activity of cells was checked by coloring them with a 0.4-% solution of trypan blue. The virus sources were strains HIV/IVS and HIV - 1 HTLV/IIIB.
(§2) The suspension of cells was placed into 24-hole boards, treated with different doses of the preparation and infected with HIV. The multiplicity of infection was 0.01 TCD50 per cell. Then the cultures were incubated at 37 C in the atmosphere containing 5% CO2 at a moisture content of 98% for 5-7 days before determining the cytopathic effect of the virus on the cell culture.
A culture of inoculated cells, line CEMSS and MT-4 was used in the experiment. […]
(§3) Then the cultures were incubated at 37 C in the atmosphere containing 5% of CO at a moisture content of 98% for 5-7 days before determining the cytopathic effect of the virus on the cell culture. The formation of viral antigen was assessed by an immunofermental analysis.

HIV [2] = assay: anti-HIV activity at different modes of administration, quantity of syncytia; assay type: in vivo; settings: placebo 100
HIV [3] = assay type: cell-based; settings: comparison preparation, no ratio; remark: listed apart in the source
Method: as §1, §2
The formation of viral antigen was assessed by immuno-fermental analysis.
as §3

Cc1cn([C@H]2C[C@H](N=[N+]=[N-])[C@@H](CO)O2)c(=O)[nH]c1=O [AZT (azidothymidine), 3-azi-3-desoxythymidine]
No of syncytia, % of virus control (HIV [1]): 8% | quantity of survived mice / quantity of infected mice (nonlinear white mice; intraabdominal, 5 mg/kg): 6/6 | quantity of survived mice / quantity of infected mice (nonlinear white mice; intraabdominal, 10 mg/kg): 6/6 | quantity of survived mice / quantity of infected mice (nonlinear white mice; intraabdominal, 20 mg/kg): 6/6 | quantity of survived mice / quantity of infected mice (nonlinear white mice; intraabdominal, 35 mg/kg): 6/6 | quantity of survived mice / quantity of infected mice (nonlinear white mice; intraabdominal, 50 mg/kg): 6/6 | quantity of survived mice / quantity of infected mice (nonlinear white mice; intraabdominal, 75 mg/kg): 6/6 | mortality of mice (nonlinear white mice; intracerebral introduction, doses from 10 to 50 mg/kg): 50% | quantity of survived mice / quantity of infected mice (nonlinear white mice; intracerebral, 5 mg/kg): 6/6 | quantity of survived mice / quantity of infected mice (nonlinear white mice; intracerebral, 10 mg/kg): 6/6 | quantity of survived mice / quantity of infected mice (nonlinear white mice; intracerebral, 20 mg/kg): 6/6 | quantity of survived mice / quantity of infected mice (nonlinear white mice; intracerebral, 35 mg/kg): 6/6 | quantity of survived mice / quantity of infected mice (nonlinear white mice; intracerebral, 50 mg/kg): 6/6 | quantity of survived mice / quantity of infected mice (nonlinear white mice; intracerebral, 75 mg/kg): 6/6 | quantity of survived mice / quantity of infected mice (nonlinear white mice; intranasal, 5 mg/kg): 6/6 | quantity of survived mice / quantity of infected mice (nonlinear white mice; intranasal, 10 mg/kg): 6/6 | quantity of survived mice / quantity of infected mice (nonlinear white mice; intranasal, 20 mg/kg): 6/6 | quantity of survived mice / quantity of infected mice (nonlinear white mice; intranasal, 35 mg/kg): 6/6 | quantity of survived mice / quantity of infected mice (nonlinear white mice; intranasal, 50 mg/kg): 6/6 | quantity of survived mice / quantity of infected mice (nonlinear white mice; intranasal, 75 mg/kg): 6/6 | quantity of survived mice / quantity of infected mice (nonlinear white mice; subcutaneous, 5 mg/kg): 6/6 | quantity of survived mice / quantity of infected mice (nonlinear white mice; subcutaneous, 10 mg/kg): 6/6 | quantity of survived mice / quantity of infected mice (nonlinear white mice; subcutaneous, 20 mg/kg): 6/6 | quantity of survived mice / quantity of infected mice (nonlinear white mice; subcutaneous, 35 mg/kg): 6/6 | quantity of survived mice / quantity of infected mice (nonlinear white mice; subcutaneous, 50 mg/kg): 6/6 | quantity of survived mice / quantity of infected mice (nonlinear white mice; subcutaneous, 75 mg/kg): 6/6 | Qty of syncytia, % (HIV [2]; intracerebral): 10% | Qty of syncytia, % (HIV [2]; intranasal): 75% | Data of immuno-enzyme analysis (HIV [3]): 0.1 mg/mg | Data of immuno-enzyme analysis, optical density (HIV [3]): 0.091
